Experiments:
PARP2 = PARP2 (Homo sapiens (Human), UniProt Q9UGN5); experiment: PARP2 biochemical assay (BPS kit)
[1] = system: Axin2 accumulation in SW480 cells; experiment: Axin2 384 immunofluorescence assay; assay type: cell-based; settings: Homo sapiens; SW480 cells, 24 hours; read-out: Axin2 384 IF EC50
[2] = target: 6×HIS-tankyrase 2 (946-1162) (Homo sapiens (Human), UniProt Q9H2K2); experiment: Tankyrase 2 biochemical assay (AlphaLisa, PARsylation); settings: 250 nM NAD; read-out: TNKS2 IC50
PARP1 = PARP1 (Homo sapiens (Human), UniProt P09874); experiment: PARP1 biochemical assay (Trevigen kit)
Description: PARP1 biochemical assay was purchased as a kit from Trevigen (cat.#4676-096-K) and used per manufacturers recommendations.

[3] = system: total β-catenin in SW480 colorectal cells; experiment: Total β-catenin MSD 96-well plate assay for SW480 cells; settings: Homo sapiens, SW480, read-out: SW480-Total beta-catenin (TBC) IC50 IP
[4] = target: 6×HIS-tankyrase1 (1091-1325) (Homo sapiens (Human), UniProt O95271); experiment: Tankyrase 1 biochemical assay (AlphaLisa, PARsylation); settings: 400 nM NAD, 60 minutes at RT; read-out: TNKS1 IC50
Chain of 6×HIS-tankyrase1 (1091-1325) (O95271 1091-1325): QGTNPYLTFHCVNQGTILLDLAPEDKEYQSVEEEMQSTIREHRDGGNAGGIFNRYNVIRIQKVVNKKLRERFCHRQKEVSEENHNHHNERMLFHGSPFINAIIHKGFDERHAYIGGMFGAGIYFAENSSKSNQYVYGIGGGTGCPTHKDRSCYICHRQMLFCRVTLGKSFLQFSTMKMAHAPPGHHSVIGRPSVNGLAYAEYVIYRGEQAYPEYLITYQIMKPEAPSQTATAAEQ

Chain of 6×HIS-tankyrase 2 (946-1162) (Q9H2K2 946-1162): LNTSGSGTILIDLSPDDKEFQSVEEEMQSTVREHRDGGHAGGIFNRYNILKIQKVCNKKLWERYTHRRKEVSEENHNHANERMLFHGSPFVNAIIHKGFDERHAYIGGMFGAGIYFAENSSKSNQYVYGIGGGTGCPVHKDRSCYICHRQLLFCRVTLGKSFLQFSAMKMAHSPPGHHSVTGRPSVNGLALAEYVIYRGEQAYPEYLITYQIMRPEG
Chain of PARP2 (Q9UGN5 whole entry): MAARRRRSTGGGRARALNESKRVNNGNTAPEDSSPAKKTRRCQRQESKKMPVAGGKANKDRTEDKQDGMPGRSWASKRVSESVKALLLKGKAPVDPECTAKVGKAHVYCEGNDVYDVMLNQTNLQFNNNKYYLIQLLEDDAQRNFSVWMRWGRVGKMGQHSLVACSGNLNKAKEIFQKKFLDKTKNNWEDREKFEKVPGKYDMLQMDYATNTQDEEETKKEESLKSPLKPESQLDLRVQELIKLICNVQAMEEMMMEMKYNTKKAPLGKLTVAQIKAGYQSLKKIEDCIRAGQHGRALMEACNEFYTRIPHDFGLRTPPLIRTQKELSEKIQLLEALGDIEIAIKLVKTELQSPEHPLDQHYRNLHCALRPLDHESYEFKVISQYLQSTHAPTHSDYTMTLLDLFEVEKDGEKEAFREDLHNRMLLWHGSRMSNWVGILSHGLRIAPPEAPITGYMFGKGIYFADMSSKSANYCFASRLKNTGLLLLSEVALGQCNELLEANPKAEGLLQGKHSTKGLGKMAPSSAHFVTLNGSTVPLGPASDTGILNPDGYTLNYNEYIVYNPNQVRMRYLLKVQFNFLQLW
Chain of PARP1 (P09874 whole entry): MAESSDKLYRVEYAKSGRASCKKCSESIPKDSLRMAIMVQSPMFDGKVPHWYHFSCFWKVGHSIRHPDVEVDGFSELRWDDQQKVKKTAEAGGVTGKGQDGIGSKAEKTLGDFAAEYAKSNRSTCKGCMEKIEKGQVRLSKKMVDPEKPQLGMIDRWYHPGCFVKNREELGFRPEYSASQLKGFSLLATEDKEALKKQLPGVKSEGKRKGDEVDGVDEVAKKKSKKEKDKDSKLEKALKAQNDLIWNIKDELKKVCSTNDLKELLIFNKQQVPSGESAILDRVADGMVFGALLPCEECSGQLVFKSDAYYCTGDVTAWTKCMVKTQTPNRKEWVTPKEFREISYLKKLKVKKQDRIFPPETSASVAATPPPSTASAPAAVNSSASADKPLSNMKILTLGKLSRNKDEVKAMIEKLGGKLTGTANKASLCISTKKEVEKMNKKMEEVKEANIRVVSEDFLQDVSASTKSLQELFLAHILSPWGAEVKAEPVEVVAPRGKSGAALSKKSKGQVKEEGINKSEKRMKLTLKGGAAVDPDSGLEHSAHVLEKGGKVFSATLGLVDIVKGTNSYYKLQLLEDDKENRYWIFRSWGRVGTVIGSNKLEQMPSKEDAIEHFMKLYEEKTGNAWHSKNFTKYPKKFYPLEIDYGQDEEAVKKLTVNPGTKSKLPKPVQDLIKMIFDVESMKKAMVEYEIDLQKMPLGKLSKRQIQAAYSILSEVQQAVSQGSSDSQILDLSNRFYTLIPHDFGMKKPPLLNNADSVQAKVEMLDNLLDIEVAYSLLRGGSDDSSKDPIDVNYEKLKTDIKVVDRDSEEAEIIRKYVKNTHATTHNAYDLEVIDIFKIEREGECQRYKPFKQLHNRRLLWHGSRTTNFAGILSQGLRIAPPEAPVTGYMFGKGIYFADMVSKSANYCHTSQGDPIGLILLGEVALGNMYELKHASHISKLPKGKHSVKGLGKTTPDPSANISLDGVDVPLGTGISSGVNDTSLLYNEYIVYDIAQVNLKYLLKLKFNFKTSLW

IC50 (PARP2) [nM]	EC50 [1] [nM]	IC50 [2] [nM]	IC50 (PARP1) [nM]	IC50 [3] [nM]	IC50 [4] [nM]	Structure (SMILES)
1140	25.7	0.341	2840	34.8	0.453	O=C(CCCc1nc2ccccc2c(=O)[nH]1)N[C@H]1CC[C@H](c2nnc(-c3ccncc3)o2)CC1 [Example 33, 4-(4-oxo-3,4-dihydro-2-quinazolinyl)-N-(trans-4-(5-(4-pyridinyl)-1,3,4-oxadiazol-2-yl)cyclohexyl)butanamide]
350	2330	6.33	1390	1710	16.6	O=C(CSc1nc2ccccc2c(=O)[nH]1)N1CCC(c2nnc(-c3ccccc3)o2)CC1 [Example 89, 2-((2-oxo-2-(4-(5-phenyl-1,3,4-oxadiazol-2-yl)piperidin-1-yl)ethyl)thio)quinazolin-4(3H)-one]
455	601	6.31	3300	152	656	Cc1ccc(-c2nnc(C3CCN(C(=O)CCCc4nc5ccccc5c(=O)[nH]4)CC3)o2)cc1 [Example 23, 2-(4-oxo-4-(4-(5-(p-tolyl)-1,3,4-oxadiazol-2-yl)piperidin-1-yl)butyl)quinazolin-4(3H)-one]
1650	38.1	0.458	> 85000	55.4	0.118	O=C(CSc1nc2ccccc2c(=O)[nH]1)N[C@H]1CC[C@H](n2c(=O)[nH]c3ccc(Cl)cc32)CC1 [Example 102, N-((1r,4r)-4-(6-chloro-2-oxo-2,3-dihydro-1H-benzo[d]imidazol-1-yl)cyclohexyl)-2-((4-oxo-3,4-dihydroquinazolin-2-yl)thio)acetamide]
681	552	1.68	1280	980	3.93	O=C(CCCc1nc2ccccc2c(=O)[nH]1)N1CCC(n2c(=O)[nH]c3c(F)cccc32)CC1 [Example 67, 2-(4-(4-(4-fluoro-2-oxo-2,3-dihydro-1H-benzimidazol-1-yl)-1-piperidinyl)-4-oxobutyl)-4(3H)-quinazolinone]
192	651	3.38	1930	626	6.94	Cc1ccc2[nH]c(=O)n(C3CCN(C(=O)CCCc4nc5ccccc5c(=O)[nH]4)CC3)c2c1 [Example 7, 2-(4-(4-(6-methyl-2-oxo-2,3-dihydro-1H-benzimidazol-1-yl)-1-piperidinyl)-4-oxobutyl)-4(3H)-quinazolinone]
1820	601	0.601	1710	119	4.37	O=C(CCCc1nc2ccccc2c(=O)[nH]1)N[C@H]1CC[C@H](Oc2ccc(F)cc2)CC1 [Example 77, N-(trans-4-(4-fluorophenoxy)cyclohexyl)-4-(4-oxo-3,4-dihydro-2-quinazolinyl)butanamide]
397	1410	1.51	4930	361	5.07	O=C(CCCc1nc2ccccc2c(=O)[nH]1)N1CCC(n2c(=O)[nH]c3cccnc32)CC1 [Example 26, 2-(4-oxo-4-(4-(2-oxo-1,2-dihydro-3H-imidazo[4,5-b]pyridin-3-yl)-1-piperidinyl)butyl)-4(3H)-quinazolinone]
471	1230	18.5	2860	56.6	168	O=C(CCCc1nc2ccccc2c(=O)[nH]1)N1CCC(c2nnc(-c3ccccc3)s2)CC1 [Example 9, 2-(4-oxo-4-(4-(5-phenyl-1,3,4-thiadiazol-2-yl)-1-piperidinyl)butyl)-4(3H)-quinazolinone]
414	260	2.54	3050	41.7	11	O=C(CCCc1nc2ccccc2c(=O)[nH]1)N1CCC(c2nnc(-c3cccc(Cl)c3)o2)CC1 [Example 3, 2-(4-(4-(5-(3-chlorophenyl)-1,3,4-oxadiazol-2-yl)-1-piperidinyl)-4-oxobutyl)-4(3H)-quinazolinone]
1360	240	3.91	2300	224	9.61	O=C(CCCc1nc2ccccc2c(=O)[nH]1)N1CCC(c2nnc(-c3ccc(F)c(Cl)c3)o2)CC1 [Example 25, 2-(4-(4-(5-(3-chloro-4-fluorophenyl)-1,3,4-oxadiazol-2-yl)piperidin-1-yl)-4-oxobutyl)quinazolin-4(3H)-one]
317	686	451	1760	2560	407	O=C(CCCc1nc2ccccc2c(=O)[nH]1)N1CCN(c2nsc3ccccc23)CC1 [Example 69, 2-(4-(4-(1,2-benzisothiazol-3-yl)-1-piperazinyl)-4-oxobutyl)-4(3H)-quinazolinone]
553	661	0.517	894	348	4.09	O=C(CCCc1nc2ccccc2c(=O)[nH]1)N1CCC(n2c(=O)[nH]c3cc(F)ccc32)CC1 [Example 51, 2-(4-(4-(5-fluoro-2-oxo-2,3-dihydro-1H-benzimidazol-1-yl)-1-piperidinyl)-4-oxobutyl)-4(3H)-quinazolinone trifluoroacetic acid]
998	359	0.593	2570	50.3	3.17	O=C(CCCc1nc2ccccc2c(=O)[nH]1)N1CCC(n2c(=O)oc3cc(F)ccc32)CC1 [Example 53, 2-(4-(4-(6-fluoro-2-oxo-1,3-benzoxazol-3(2H)-yl)-1-piperidinyl)-4-oxobutyl)-4(3H)-quinazolinone trifluoroacetic acid]
1150	30.9	0.237	1050	24.8	0.469	O=C(CCCc1nc2ccccc2c(=O)[nH]1)N[C@H]1CC[C@H](c2nnc(-c3cccc(F)c3)o2)CC1 [Example 31, N-(trans-4-(5-(3-fluorophenyl)-1,3,4-oxadiazol-2-yl)cyclohexyl)-4-(4-oxo-3,4-dihydro-2-quinazolinyl)butanamide]
371	951	2.39	1900	208	11.8	O=C(CCCc1nc2ccccc2c(=O)[nH]1)N[C@H]1CC[C@H](Oc2cccnc2)CC1 [Example 59, 4-(4-oxo-3,4-dihydro-2-quinazolinyl)-N-(trans-4-(3-pyridinyloxyl)cyclohexyl)butanamide]
1020	94.7	0.193	3830	25.2	1.3	O=C(CCCc1nc2ccccc2c(=O)[nH]1)N1CCC(n2c(=O)[nH]c3cc(C(F)(F)F)ccc32)CC1 [Example 52, 2-(4-oxo-4-(4-(2-oxo-5-(trifluoromethyl)-2,3-dihydro-1H-benzimidazol-1-yl)-1-piperidinyl)butyl)-4(3H)-quinazolinone trifluoroacetic acid]
349	217	0.206	464	302	0.873	N#Cc1cccc2c1[nH]c(=O)n2C1CCN(C(=O)CCCc2nc3ccccc3c(=O)[nH]2)CC1 [Example 61, 2-oxo-1-(1-(4-(4-oxo-3,4-dihydro-2-quinazolinyl)butanoyl)-4-piperidinyl)-2,3-dihydro-1H-benzimidazole-4-carbonitrile]
1590	1270	1.18	2440	233	3.97	O=C(CCCc1nc2ccccc2c(=O)[nH]1)N1CCC(n2c(=O)[nH]c3ncccc32)CC1 [Example 47, 2-(4-oxo-4-(4-(2-oxo-2,3-dihydro-1H-imidazo[4,5-b]pyridin-1-yl)-1-piperidinyl)butyl)-4(3H)-quinazolinone trifluoroacetic acid]
802	270	0.653	586	211	2.33	N#Cc1cc(O[C@H]2CC[C@H](NC(=O)CCCc3nc4ccccc4c(=O)[nH]3)CC2)ccc1Cl [Example 63, N-(trans-4-(4-chloro-3-cyanophenoxy)cyclohexyl)-4-(4-oxo-3,4-dihydro-2-quinazolinyl)butanamide]
1180	9.45	1.31	1350	8.42	0.045	N#Cc1ccc2c(c1)[nH]c(=O)n2[C@H]1CC[C@H](NC(=O)CCSc2nc3ccccc3c(=O)[nH]2)CC1 [Example 104, N-((1r,4r)-4-(5-cyano-2-oxo-2,3-dihydro-1H-benzo[d]imidazol-1-yl)cyclohexyl)-3-((4-oxo-3,4-dihydroquinazolin-2-yl)thio)propanamide]
1270	13.9	0.191	1060	10.6	0.567	COc1ccc(-c2nnc([C@H]3CC[C@H](NC(=O)CCCc4nc5ccccc5c(=O)[nH]4)CC3)o2)cc1 [Example 30, N-(trans-4-(5-(4-methoxyphenyl)-1,3,4-oxadiazol-2-yl)cyclohexyl)-4-(4-oxo-3,4-dihydro-2-quinazolinyl)butanamide]

From patent US9505749B2, “Quinazolinone compounds and derivatives thereof” (AMGEN INC., priority 2012, dated 2016)
